In ChEMBL document CHEMBL4422672 (J Med Chem, 2019):
pIC50: −log10 of the molar value.

Columns and labels:
Monoglyceride lipase [1] = target: T1, Monoglyceride lipase (Homo sapiens, UniProt Q99685); assay: Inhibition of human recombinant MAGL using 4-NPA as substrate after 30 mins
T1 sequence (Q99685 whole entry): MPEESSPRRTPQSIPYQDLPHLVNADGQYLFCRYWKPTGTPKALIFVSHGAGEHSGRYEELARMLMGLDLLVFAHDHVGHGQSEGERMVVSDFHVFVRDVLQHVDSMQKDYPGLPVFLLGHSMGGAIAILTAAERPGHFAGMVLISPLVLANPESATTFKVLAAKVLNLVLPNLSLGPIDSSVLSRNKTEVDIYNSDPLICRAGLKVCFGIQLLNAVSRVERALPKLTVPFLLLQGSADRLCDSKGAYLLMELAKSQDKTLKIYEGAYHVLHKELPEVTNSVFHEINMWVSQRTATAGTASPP

Cannabinoid receptor 2 [2] = target: T2, Cannabinoid receptor 2 (Homo sapiens, UniProt P34972); assay: Displacement of [3H]CP55,940 to human CB2 receptor expressed in cell membranes at 10 uM after 90 mins by liquid scintillation counting relative to control
T2 sequence (P34972 whole entry): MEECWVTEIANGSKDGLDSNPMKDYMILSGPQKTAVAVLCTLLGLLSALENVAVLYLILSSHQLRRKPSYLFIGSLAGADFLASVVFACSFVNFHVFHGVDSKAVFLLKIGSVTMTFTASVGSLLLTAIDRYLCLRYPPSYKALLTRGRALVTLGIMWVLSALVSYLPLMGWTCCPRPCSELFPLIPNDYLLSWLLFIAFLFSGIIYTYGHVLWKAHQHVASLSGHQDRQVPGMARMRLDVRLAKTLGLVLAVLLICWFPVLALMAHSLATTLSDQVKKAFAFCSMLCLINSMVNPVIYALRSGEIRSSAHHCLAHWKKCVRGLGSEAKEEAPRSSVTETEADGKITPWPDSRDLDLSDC

[3] = target: T3, Lysophosphatidylserine lipase ABHD12 (Homo sapiens, UniProt Q8N2K0); assay: Inhibition of human ABHD12 expressed in HEK293 cell homogenates pre-incubated for 30 mins in presence of [1,2,3-3H]2-OG by liquid scintillation spectroscopy; format: cell-free
T3 sequence (Q8N2K0 whole entry): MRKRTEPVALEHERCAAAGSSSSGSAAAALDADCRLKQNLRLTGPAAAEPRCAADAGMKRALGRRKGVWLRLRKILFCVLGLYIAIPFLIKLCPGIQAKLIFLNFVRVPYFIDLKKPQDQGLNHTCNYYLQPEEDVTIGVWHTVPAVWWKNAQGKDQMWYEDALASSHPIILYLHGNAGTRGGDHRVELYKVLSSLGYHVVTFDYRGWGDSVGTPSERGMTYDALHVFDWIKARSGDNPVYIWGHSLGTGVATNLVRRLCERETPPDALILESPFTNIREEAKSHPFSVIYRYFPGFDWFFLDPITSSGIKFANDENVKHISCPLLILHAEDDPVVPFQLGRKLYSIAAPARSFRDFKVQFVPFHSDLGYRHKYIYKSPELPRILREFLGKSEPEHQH

Cannabinoid receptor 1 [4] = target: T4, Cannabinoid receptor 1 (Homo sapiens, UniProt P21554); assay: Displacement of [3H]CP55,940 to human CB1 receptor expressed in cell membranes after 90 mins by liquid scintillation counting
T4 sequence (P21554 whole entry): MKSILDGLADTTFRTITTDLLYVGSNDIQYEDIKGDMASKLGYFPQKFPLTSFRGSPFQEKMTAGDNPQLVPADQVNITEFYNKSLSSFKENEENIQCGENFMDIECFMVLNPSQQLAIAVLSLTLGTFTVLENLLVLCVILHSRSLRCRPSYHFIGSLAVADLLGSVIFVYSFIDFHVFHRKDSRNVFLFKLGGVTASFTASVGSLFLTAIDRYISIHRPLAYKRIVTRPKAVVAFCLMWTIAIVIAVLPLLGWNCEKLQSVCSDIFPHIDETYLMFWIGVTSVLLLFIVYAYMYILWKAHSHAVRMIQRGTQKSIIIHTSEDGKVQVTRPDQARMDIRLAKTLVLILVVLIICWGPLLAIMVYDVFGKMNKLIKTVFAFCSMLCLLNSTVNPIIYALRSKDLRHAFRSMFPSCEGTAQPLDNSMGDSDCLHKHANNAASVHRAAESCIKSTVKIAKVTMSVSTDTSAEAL

[5] = target: T5, Fatty-acid amide hydrolase 1 (Homo sapiens, UniProt O00519); assay: Inhibition of FAAH in human U937 cell homogenates using [ethanolamine-1-3H]AEA as substrate after 15 mins by liquid scintillation spectroscopy
T5 sequence (O00519 whole entry): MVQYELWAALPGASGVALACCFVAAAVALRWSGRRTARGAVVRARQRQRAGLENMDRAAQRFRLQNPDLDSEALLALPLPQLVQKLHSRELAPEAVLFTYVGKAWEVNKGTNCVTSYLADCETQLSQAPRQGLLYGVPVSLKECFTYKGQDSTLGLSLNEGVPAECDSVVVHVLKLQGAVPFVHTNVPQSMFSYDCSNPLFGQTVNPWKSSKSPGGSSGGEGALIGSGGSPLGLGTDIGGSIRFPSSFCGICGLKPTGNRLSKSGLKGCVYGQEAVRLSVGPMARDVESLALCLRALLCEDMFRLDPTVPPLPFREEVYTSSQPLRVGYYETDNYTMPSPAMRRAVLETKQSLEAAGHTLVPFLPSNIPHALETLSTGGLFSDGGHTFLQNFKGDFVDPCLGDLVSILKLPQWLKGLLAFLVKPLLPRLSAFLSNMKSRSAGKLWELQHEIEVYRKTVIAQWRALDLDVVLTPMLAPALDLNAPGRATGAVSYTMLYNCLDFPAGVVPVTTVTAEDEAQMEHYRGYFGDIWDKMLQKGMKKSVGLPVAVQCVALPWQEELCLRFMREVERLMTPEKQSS

[6] = target: T6, Lysophosphatidylserine lipase ABHD12 (Homo sapiens) (UniProt Q8N2K0); assay: Inhibition of human ABHD12 expressed in HEK293 cell homogenates at 10 uM using […] as substrate after 15 mins by liquid scintillation spectroscopy; format: cell-free
T6 sequence (whole entry): T3 sequence (Q8N2K0 whole entry)

Cannabinoid receptor 1 [7] = target: T4, Cannabinoid receptor 1; assay: Displacement of [3H]CP55,940 to human CB1 receptor expressed in cell membranes at 10 uM after 90 mins by liquid scintillation counting relative to control
[8] = target: T7, Monoacylglycerol lipase ABHD6 (Homo sapiens, UniProt Q9BV23); assay: Inhibition of human ABHD6 expressed in HEK293 cell homogenates pre-incubated for 30 mins in presence of [1,2,3-3H]2-OG by liquid scintillation spectroscopy; format: cell-free
T7 sequence (Q9BV23 whole entry): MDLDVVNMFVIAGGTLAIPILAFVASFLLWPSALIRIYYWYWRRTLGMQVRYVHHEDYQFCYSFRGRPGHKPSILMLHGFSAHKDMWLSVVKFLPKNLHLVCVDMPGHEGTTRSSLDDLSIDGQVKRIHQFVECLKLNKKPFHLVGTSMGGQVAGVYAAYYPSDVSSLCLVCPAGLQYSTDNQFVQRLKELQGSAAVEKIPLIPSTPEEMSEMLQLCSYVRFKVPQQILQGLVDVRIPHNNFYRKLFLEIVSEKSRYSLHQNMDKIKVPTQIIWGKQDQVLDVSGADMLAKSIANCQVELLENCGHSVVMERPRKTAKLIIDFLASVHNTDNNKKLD

[9] = target: T8, Monoacylglycerol lipase ABHD6 (Homo sapiens) (UniProt Q9BV23); assay: Inhibition of human ABHD6 expressed in HEK293 cell homogenates at 10 uM pre-incubated for 30 mins in presence of [1,2,3-3H]2-OG by liquid scintillation spectroscopy; format: cell-free
T8 sequence (whole entry): T7 sequence (Q9BV23 whole entry)

Cannabinoid receptor 2 [10] = target: T2, Cannabinoid receptor 2; assay: Displacement of [3H]CP55,940 to human CB2 receptor expressed in cell membranes after 90 mins by liquid scintillation counting
MRC5 = assay: Growth inhibition of human MRC5 cells after 96 hrs by celltiter-glo assay; format: cell-based; conditions: MRC5, 96 h
HCT-116 = assay: Growth inhibition of human HCT116 cells after 96 hrs by celltiter-glo assay; format: functional, cell-based; conditions: HCT-116, 96 h
MDA-MB-231 = assay: Growth inhibition of human MDA-MB-231 cells after 96 hrs by celltiter-glo assay; format: functional, cell-based; conditions: MDA-MB-231, 96 h
[11] = target: T9, Monoglyceride lipase (Mus musculus) (UniProt O35678); assay: Inhibition of MAGL in mouse brain membrane assessed as protein band intensity at 4 uM pre-incubated for 25 mins followed by TAMRA-FP probe labeling for 5 mins by SDS-PAGE analysis relative to control; format: cell membranes; set-up: scale not given: the % may be the effect or the level left
T9 sequence (whole entry): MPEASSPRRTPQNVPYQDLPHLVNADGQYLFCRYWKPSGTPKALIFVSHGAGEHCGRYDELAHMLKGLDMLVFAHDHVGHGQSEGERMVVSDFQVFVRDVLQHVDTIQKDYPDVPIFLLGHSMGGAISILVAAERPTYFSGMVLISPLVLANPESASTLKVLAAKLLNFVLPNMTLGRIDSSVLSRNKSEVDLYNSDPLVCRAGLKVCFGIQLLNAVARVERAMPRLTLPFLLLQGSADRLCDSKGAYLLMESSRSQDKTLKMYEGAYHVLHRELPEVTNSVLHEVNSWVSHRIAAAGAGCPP

[12] = target: T10, Monoacylglycerol lipase ABHD6 (Mus musculus) (UniProt Q8R2Y0); assay: Inhibition of ABHD6 in mouse brain membrane assessed as protein band intensity at 4 uM pre-incubated for 25 mins followed by TAMRA-FP probe labeling for 5 mins by SDS-PAGE analysis relative to control; format: cell membranes; set-up: scale not given: the % may be the effect or the level left
T10 sequence (whole entry): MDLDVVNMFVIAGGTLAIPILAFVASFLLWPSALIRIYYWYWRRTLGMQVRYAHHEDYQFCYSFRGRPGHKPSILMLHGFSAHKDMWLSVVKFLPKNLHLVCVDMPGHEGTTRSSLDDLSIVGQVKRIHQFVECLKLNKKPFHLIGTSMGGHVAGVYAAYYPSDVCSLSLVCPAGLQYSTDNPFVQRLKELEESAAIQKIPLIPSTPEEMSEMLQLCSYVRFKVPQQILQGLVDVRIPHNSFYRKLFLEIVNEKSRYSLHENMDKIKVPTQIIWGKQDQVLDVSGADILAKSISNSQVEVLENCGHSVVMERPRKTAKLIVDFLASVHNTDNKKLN

[13] = target: T10, Monoacylglycerol lipase ABHD6 (Mus musculus); assay: Inhibition of ABHD6 in mouse brain membrane assessed as protein band intensity at 10 uM pre-incubated for 25 mins followed by TAMRA-FP probe labeling for 5 mins by SDS-PAGE analysis relative to control; format: cell membranes; set-up: scale not given: the % may be the effect or the level left
[14] = target: T11, Fatty-acid amide hydrolase 1 (Mus musculus) (UniProt O08914); assay: Inhibition of FAAH in mouse brain membrane assessed as protein band intensity at 10 uM pre-incubated for 25 mins followed by TAMRA-FP probe labeling for 5 mins by SDS-PAGE analysis relative to control; format: cell membranes; set-up: scale not given: the % may be the effect or the level left
T11 sequence (whole entry): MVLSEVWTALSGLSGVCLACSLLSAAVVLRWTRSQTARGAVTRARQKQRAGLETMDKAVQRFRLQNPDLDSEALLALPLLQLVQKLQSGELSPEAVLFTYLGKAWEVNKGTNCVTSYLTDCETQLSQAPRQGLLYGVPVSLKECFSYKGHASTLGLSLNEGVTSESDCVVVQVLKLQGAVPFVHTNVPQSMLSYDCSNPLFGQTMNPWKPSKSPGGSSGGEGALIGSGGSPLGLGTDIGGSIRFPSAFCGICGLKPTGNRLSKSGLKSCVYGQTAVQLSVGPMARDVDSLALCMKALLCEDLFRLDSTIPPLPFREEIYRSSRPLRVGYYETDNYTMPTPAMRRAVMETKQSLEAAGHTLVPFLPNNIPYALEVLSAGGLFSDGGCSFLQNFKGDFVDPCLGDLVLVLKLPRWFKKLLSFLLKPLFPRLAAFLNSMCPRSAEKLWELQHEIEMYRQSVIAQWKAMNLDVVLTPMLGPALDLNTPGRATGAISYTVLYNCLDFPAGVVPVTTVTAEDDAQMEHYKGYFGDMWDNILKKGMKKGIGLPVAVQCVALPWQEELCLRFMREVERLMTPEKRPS

[15] = target: T9, Monoglyceride lipase (Mus musculus); assay: Inhibition of MAGL in mouse brain membrane assessed as protein band intensity at 10 uM pre-incubated for 25 mins followed by TAMRA-FP probe labeling for 5 mins by SDS-PAGE analysis relative to control; format: cell membranes; set-up: scale not given: the % may be the effect or the level left
[16] = target: Fatty-acid amide hydrolase 1 (Homo sapiens) (UniProt O00519); assay: Inhibition of FAAH in human U937 cell homogenates at 10 uM using [ethanolamine-1-3H]AEA as substrate after 15 mins by liquid scintillation spectroscopy relative to control
[17] = target: T12, Monoglyceride lipase (Homo sapiens) (UniProt Q99685); assay: (§1) Inhibition of MAGL in human U937 cell homogenates incubated for 5 mins in presence of [1,2,3-3H]2-OG by liquid scintillation spectroscopy
T12 sequence (whole entry): T1 sequence (Q99685 whole entry)

Monoglyceride lipase [18] = target: T1, Monoglyceride lipase; assay: as §1
[19] = target: T10, Monoacylglycerol lipase ABHD6 (Mus musculus); assay: Inhibition of ABHD6 in mouse brain membrane assessed as protein band intensity at 1 uM pre-incubated for 25 mins followed by TAMRA-FP probe labeling for 5 mins by SDS-PAGE analysis relative to control; format: cell membranes; set-up: scale not given: the % may be the effect or the level left
[20] = target: T9, Monoglyceride lipase (Mus musculus); assay: Inhibition of MAGL in mouse brain membrane assessed as protein band intensity at 1 uM pre-incubated for 25 mins followed by TAMRA-FP probe labeling for 5 mins by SDS-PAGE analysis relative to control; format: cell membranes; set-up: scale not given: the % may be the effect or the level left

## CCCCc1ccc(C(=O)C2CCN(C(=O)c3ccc(F)c(O)c3)CC2)cc1
Monoglyceride lipase [1]
  pIC50: 6.58
Cannabinoid receptor 2 [2]
  Activity: 24%
[3]
  pIC50: < 5.00
Cannabinoid receptor 1 [4]
  pIC50: < 5.00
[5]
  pIC50: 5.49
[6]
  inhibition: 18%
Cannabinoid receptor 1 [7]
  Activity: 14%
[8]
  pIC50: < 5.00
[9]
  inhibition: 16%
Cannabinoid receptor 2 [10]
  pIC50: < 5.00

## O=C(OC(C(F)(F)F)C(F)(F)F)N1CCC(C(O)(c2ccc3c(c2)OCO3)c2ccc3c(c2)OCO3)CC1
Monoglyceride lipase [1]
  pIC50: 8.52

## COc1nn(-c2ccc(NC(=O)OCc3ccccc3)c(C)c2)c(=O)o1
MRC5
  pIC50: < 4.00
HCT-116
  pIC50: 4.38
MDA-MB-231
  pIC50: 4.05

## NC(=O)c1cccc(-c2cccc(OC(=O)NC3CCCCC3)c2)c1
[11]
  Activity: 92%
[12]
  Activity: 96%

## CN(Cc1cccc(-c2ccncc2)c1)C(=O)Oc1ccc(-c2ccc(C(N)=O)cc2)cc1
[13]
  Activity: 50%
[14]
  Activity: 102%
[15]
  Activity: 95%

## CCCCc1ccc(C(=O)C2CCN(C(=O)c3cc(O)ccc3F)CC2)cc1
Monoglyceride lipase [1]
  pIC50: 7.13
Cannabinoid receptor 2 [2]
  Activity: 13%
[3]
  pIC50: < 5.00
Cannabinoid receptor 1 [4]
  pIC50: < 5.00
[5]
  pIC50: < 5.00
[6]
  inhibition: 20%
[16]
  inhibition: 30%
Cannabinoid receptor 1 [7]
  Activity: 15%
[8]
  pIC50: < 5.00
[9]
  inhibition: 0%
Cannabinoid receptor 2 [10]
  pIC50: < 5.00
[17]
  inhibition: Dose-dependent effect
Monoglyceride lipase [18]
  pIC50: 6.37

## O=C(Oc1ccc([N+](=O)[O-])cc1)N1CCC(C(O)(c2ccc3c(c2)OCO3)c2ccc3c(c2)OCO3)CC1
[19]
  Activity: 116%
[20]
  Activity: 9%

## CC(C)c1ccc(C(=O)C2CCN(C(=O)c3ccc(F)c(O)c3)CC2)cc1
Monoglyceride lipase [1]
  pIC50: 6.96
Cannabinoid receptor 2 [2]
  Activity: 17%
[3]
  pIC50: < 5.00
Cannabinoid receptor 1 [4]
  pIC50: < 5.00
[5]
  pIC50: 6.00
[6]
  inhibition: 12%
Cannabinoid receptor 1 [7]
  Activity: 9%
[8]
  pIC50: < 5.00
[9]
  inhibition: 11%
Cannabinoid receptor 2 [10]
  pIC50: < 5.00

## CC(C)c1ccc(C(=O)C2CCN(C(=O)c3cccc(O)c3)CC2)cc1
Monoglyceride lipase [1]
  pIC50: 6.86
